Test results published in patent US10226448B2, “3-(1H-pyrrolo[3,2-C]pyridin-2-yl)-1H-pyrazolo[3,4-B]pyridines and therapeutic uses thereof” (Samumed, LLC, priority 2015, dated 2019).

Tests used:
Format in all cases: cell-based
[1] = system: Wnt activity (Sp5-Luc reporter, TCF/LEF binding sites) in SW480 colon carcinoma cells; assay: Wnt activity screening assay: Sp5-Luc reporter gene assay in SW480 cells; conditions: Homo sapiens; for EC50: Sp5-Luc reporter, SW480 cells, overnight incubation
In short: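 SW480 cells stably carrying a luciferase reporter under a human Sp5 promoter with eight TCF/LEF sites, plated at 4,000 cells/well in 1% FBS medium. Luminescence read with BrightGlo, normalized to DMSO-treated cells; EC50 from four-parameter variable-slope nonlinear regression.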

[2] = system: IL-6 in THP-1 cells; assay: IL-6 inhibition in LPS-stimulated THP-1 human monocyte cells (HTRF); conditions: for EC50: IL-6 inhibition, LPS-stimulated THP-1 cells, HTRF, 10-point dose-response starting from 10 μM; for inhibition at 10 µM: THP-1, read-out: percentage in parentheses beside EC50 >10
In short: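 THP-1 cells were serum-reduced (1% FBS, 24 h), plated at 5000 cells/well with compound for 2 h at 37 °C, then stimulated 22 h with 500 ng/mL LPS. Secreted IL-6 was quantified by HTRF (665/620 nm ratio). Signals were normalised to DMSO, and EC50 was fitted by four-parameter nonlinear regression.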

[3] = system: LL29 cells (primary human fibroblasts derived from IPF patients), α-smooth muscle actin; assay: Inhibition of the fibrotic process: αSMA staining in TGF-β1 treated primary human fibroblasts from IPF patients (LL29 cells); conditions: Fibroblast; for EC50: 96 h, LL29 cells, TGF-β1 20 ng/mL, 4 days, % αSMA positive cells; for inhibition at 10 µM: read-out: percent inhibition at 10 μM
In short: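 Read-out after 4-day incubation: αSMA staining with 1 μM SYTOX green nuclear counterstain (30 min, room temperature). Cells were LL29 primary fibroblasts from IPF patients, in 1% FBS F12, exposed to TGF-β1 with test compound, referenced to TGF-β1/DMSO control wells.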

[4] = system: SW480 colon cancer cells; assay: Cell viability assay (CellTiter-Blue) in SW480 colon cancer cells; conditions: Homo sapiens; for EC50: 96 h, SW480 cell viability, four days, CellTiter-Blue; for inhibition at 10 µM: SW480, read-out: percent inhibition at 10 μM
In short: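 Fluorescence from resazurin reduced to resorufin by metabolically active cells was the read-out, taken after ~3 h with CellTiter-Blue.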

[5] = system: primary human mesenchymal stem cells (hMSCs); assay: Induction of chondrogenesis in primary human mesenchymal stem cells (chondrogenic nodules, Rhodamine B / Nile Red); conditions: 6 days; for Emax: relative to TGF-β3 (10 ng/mL) positive control, read-out: Max. Activity as % TGF-β3 activity; for EC50: concentration required to induce 50% levels of chondrogenesis vs TGF-β3, read-out: Conc (nM) of 50% TGF-β3 activity
In short: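 Primary hMSCs at passage 3–6 were fixed with 4% formaldehyde and stained with 2 μg/mL Rhodamine B plus 20 μM Nile Red to image chondrogenic nodules. Nodule counts normalized to the mean of 3 DMSO wells (fold change), averaged over 3 replicate wells per concentration. TGF-β3 served as positive control; EC50, maximum activity and the dose giving maximum are reported.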

| Compound | EC50 [1] [nM] | EC50 [2] [nM] | EC50 [3] [nM] | EC50 [4] [nM] | Emax [5] [%] | EC50 [5] [nM] | inhibition at 10 µM [3] [%] | inhibition at 10 µM ([1]; SW480, read-out: percent inhibition at 10 μM) [%] | inhibition at 10 µM [4] [%] | inhibition at 10 µM [2] [%] |
| --- | --- | --- | --- | --- | --- | --- | --- | --- | --- | --- |
| O=C(Nc1cncc(-c2cnc3[nH]nc(-c4cc5cnccc5[nH]4)c3c2)c1)C1CCCCC1 [Compound 275, N-(5-(3-(1H-Pyrrolo[3,2-c]pyridin-2-yl)-1H-pyrazolo[3,4-b]pyridin-5-yl)pyridin-3-yl)cyclohexanecarboxamide] | 1400 | 447 | 1380 | 1520 | 9 | – | – | – | – | – |
| O=C(Nc1cncc(-c2cnc3[nH]nc(-c4cc5c(-c6cccs6)nccc5[nH]4)c3c2)c1)C1CCC1 [Compound 357, N-(5-(3-(4-(Thiophen-2-yl)-1H-pyrrolo[3,2-c]pyridin-2-yl)-1H-pyrazolo[3,4-b]pyridin-5-yl)pyridin-3-yl)cyclobutanecarboxamide] | 473 | 179 | 609 | 489 | 82 | 100 | – | – | – | – |
| CC(C)CC(=O)Nc1cncc(-c2cnc3[nH]nc(-c4cc5c(-c6cc(F)cc(CNS(C)(=O)=O)c6)nccc5[nH]4)c3c2)c1 [Compound 478, N-(5-(3-(4-(3-Fluoro-5-(methylsulfonamidomethyl)phenyl)-1H-pyrrolo[3,2-c]pyridin-2-yl)-1H-pyrazolo[3,4-b]pyridin-5-yl)pyridin-3-yl)-3-methylbutanamide] | 1960 | 537 | > 10000 | 4090 | 52 | 300 | 0 | – | – | – |
| Cc1ccncc1-c1cnc2[nH]nc(-c3cc4c(-c5cc(F)cc(CNS(C)(=O)=O)c5)nccc4[nH]3)c2c1 [Compound 481, N-(3-Fluoro-5-(2-(5-(4-methylpyridin-3-yl)-1H-pyrazolo[3,4-b]pyridin-3-yl)-1H-pyrrolo[3,2-c]pyridin-4-yl)benzyl)methanesulfonamide] | 662 | 307 | 600 | 1500 | 173 | 900 | – | – | – | – |
| CCNCc1cncc(-c2cnc3[nH]nc(-c4cc5c(-c6cc(F)cc(CNS(C)(=O)=O)c6)nccc5[nH]4)c3c2)c1 [Compound 482, N-(3-(2-(5-(5-((Ethylamino)methyl)pyridin-3-yl)-1H-pyrazolo[3,4-b]pyridin-3-yl)-1H-pyrrolo[3,2-c]pyridin-4-yl)-5-fluorobenzyl)methanesulfonamide] | > 10000 | 2240 | > 10000 | > 10000 | 61 | 300 | 0 | 8.8 | 16.6 | – |
| CC(C)Nc1cncc(-c2cnc3[nH]nc(-c4cc5c(-c6cc(F)cc(CNS(C)(=O)=O)c6)nccc5[nH]4)c3c2)c1 [Compound 488, N-(3-Fluoro-5-(2-(5-(5-(isopropylamino)pyridin-3-yl)-1H-pyrazolo[3,4-b]pyridin-3-yl)-1H-pyrrolo[3,2-c]pyridin-4-yl)benzyl)methanesulfonamide] | 486 | > 10000 | 860 | 1340 | 66 | 100 | – | – | – | 54.6 |
| CS(=O)(=O)NCc1cc(F)cc(-c2nccc3[nH]c(-c4n[nH]c5ncc(-c6cncc(NC(=O)C7CCC7)c6)cc45)cc23)c1 [Compound 497, N-(5-(3-(4-(3-Fluoro-5-(methylsulfonamidomethyl)phenyl)-1H-pyrrolo[3,2-c]pyridin-2-yl)-1H-pyrazolo[3,4-b]pyridin-5-yl)pyridin-3-yl)cyclobutanecarboxamide] | 3640 | 124 | > 10000 | > 10000 | 52 | 300 | 0 | – | 48 | – |
| CS(=O)(=O)NCc1cc(F)cc(-c2nccc3[nH]c(-c4n[nH]c5ncc(-c6cncc(NC(=O)C7CCCCC7)c6)cc45)cc23)c1 [Compound 499, N-(5-(3-(4-(3-Fluoro-5-(methylsulfonamidomethyl)phenyl)-1H-pyrrolo[3,2-c]pyridin-2-yl)-1H-pyrazolo[3,4-b]pyridin-5-yl)pyridin-3-yl)cyclohexane carboxamide] | 3630 | 3750 | > 10000 | > 10000 | 120 | – | 23.6 | – | 35.5 | – |
| Fc1ccccc1-c1nccc2[nH]c(-c3n[nH]c4ncc(-c5cn[nH]c5)cc34)cc12 [Compound 539, 3-(4-(2-Fluorophenyl)-1H-pyrrolo[3,2-c]pyridin-2-yl)-5-(1H-pyrazol-4-yl)-1H-pyrazolo[3,4-b]pyridine] | 56 | 101 | 76 | 261 | 49 | – | – | – | – | – |
| Cn1cc(-c2cnc3[nH]nc(-c4cc5c(-c6cccnc6)nccc5[nH]4)c3c2)cn1 [Compound 556, 5-(1-Methyl-1H-pyrazol-4-yl)-3-(4-(pyridin-3-yl)-1H-pyrrolo[3,2-c]pyridin-2-yl)-1H-pyrazolo[3,4-b]pyridine] | 318 | 355 | 98 | 975 | 33 | – | – | – | – | – |
| CS(=O)(=O)NCc1cc(F)cc(-c2nccc3[nH]c(-c4n[nH]c5ncc(-c6cncc(OCc7ccccc7)c6)cc45)cc23)c1 [Compound 774, N-(3-(2-(5-(5-(Benzyloxy)pyridin-3-yl)-1H-pyrazolo[3,4-b]pyridin-3-yl)-1H-pyrrolo[3,2-c]pyridin-4-yl)-5-fluorobenzyl)methanesulfonamide] | 6860 | > 10000 | 2160 | > 10000 | 21 | – | – | – | 30.2 | 48.3 |
